In patent US20150133516A1, “Methods and Compositions for Treating ADHD” (priority 2013, published 2015):

How the values were obtained:
[1] = tested on: α2 adrenergic receptors; test: alpha 2/alpha1 functional selectivity (in vitro functional potencies); format: biochemical
Description: (§1) The pharmacological activity and selectivity of these compounds can be determined using published test procedures. […] (See, e.g., The Alpha-2 Adrenergic Receptors, L. E. Limbird, ed., Humana Press, Clifton, N.J.) The following in vivo assays are typically conducted in rodents or other species. Central nervous system activity is determined by measuring locomotor activity as an index of sedation. (See, e.g., Spyraki, C. & H. Fibiger, “Clonidine-induced Sedation in Rats: Evidence for Mediation by Postsynaptic Alpha-2 Adrenoreceptors”, Journal of Neural Transmission, Vol. 54 (1982), pp. 153-163). Nasal decongestant activity is measured using rhinomanometry as an estimate of nasal airway resistance. […] Antiglaucoma activity is determined by measuring intraocular pressure. […] Antidiarrheal activity is determined by measuring the ability of the compounds to inhibit prostaglandin-induced diarrhea. […] Efficacy in treating irritable bowel syndrome is determined by measuring the ability of compounds to reduce the stress-induced increase in fecal output. […] Antiasthma activity is determined by measuring the effect of the compound on bronchoconstriction associated with pulmonary challenges such as inhaled antigens. […] Activity in cough is determined by measuring the number and latency of the cough response to respiratory challenges such as inhaled citric acid. […]

[2] = tested on: α2 receptors; test: receptor binding affinities / selectivity against other molecular targets
Description: as §1

[3] = clinical; details: human, in vivo
[4] = tested on: spontaneously hypertensive rats (SHR); test: delayed gratification response paradigm in SHR animal model of ADHD; format: in vivo, rat; details: 5, 10, 25 or 50 mg/kg over twenty-one days
Text: In this study, spontaneously hypertensive rats (SHR) are used as an animal model for ADHD. The SHR animal model is described in Russell et al., 2000, Behavioral Brain Research, 117: 69-74; Russell, 2001, Metab. Brain Dis., 16: 143-149; and Sagvolden et al., 1992, Behav. Neural Biol., 58: 103-112. The study consists of two groups of rats: normal and SHR. Each group is further divided into two subgroups: placebo and AR08. The AR08 subgroup is further divided into four subgroups and each subgroup is administered 5, 10, 25, or 50 mg/kg of AR08. The AR08 is administered to the rats over a period of twenty-one days. The rats are from the normal and SHR groups are trained in the delayed gratification response paradigm as described in Charrier et al., 1996, Pharmacology and Biochemistry and Behavior, 54: 149-157. In this paradigm, rats learn to choose between five food pellets delivered after 30 seconds and one food pellet delivered after 5 seconds. Normal rats learn to choose the five food pellets delivered after 30 seconds at a higher frequency.

Structure (SMILES): Cc1c(N=C2NCCN2)cc(C#N)c2[nH]cnc12 [Compound I, N-(4,5-Dihydro-1H-imidazol-2-yl)-7-cyano-4-methyl-1H-benzimidazol-5-amine]
- alpha 2/alpha1 functional selectivity [1]: about 70 fold
- binding to targets other than α2 receptors [2]: no relevant binding
- selectivity for the α2 adrenergic receptors ([2]; versus a wide range of other molecular targets): highly selective
- half-life [3]: 26 to 40 h

Structure (SMILES): Cc1c(N=C2NCCN2)cc(C#N)c2[nH]cnc12 [AR08, N-(4,5-Dihydro-1H-imidazol-2-yl)-7-cyano-4-methyl-1H-benzimidazol-5-amine acetate]
- amount of time required by SHR rats to choose five food pellets delivered after 30 seconds at a higher frequency [4]: reduced
